Here are results for nine compounds from paper PMC6776084 (ChemMedChem, 2009).

Data set [1] deals with HIV-1 based vector containing wild-type (wt) HIV-1 RT. The format is cell-based. The following applies: for pEC50: read-out: EC50(HOS-313), HOS-313 cells (HSV-1 TK), 48 h, wt HIV-1 RT vector.
Data set [2] concerns HOS-313 cells. Format: cell-based, human. The following applies: read-out: CC50(HOS-313), absence of virus, ATP level.
Data set [3] concerns HIV-1 based vector containing wild-type (wt) HIV-1 RT. The following applies: for pEC50: read-out: EC50(HOS), HOS cells, 48 h, wt HIV-1 RT vector.
Data set [4] relates to HOS cells.
In data set [5] the test system is HIV-1.
The subject of data set [6] is HIV. The following applies: qualitative; cited from earlier work.
Data set [7] concerns cellular thymidine kinase (TK). The following applies: cited from earlier work.

pEC50: −log10 of the molar value. Where two headings read alike, the source gives them in different places.

The term pEC50 denotes the negative decadic logarithm of the EC50, by convention in mol/L. For orientation: CC50 means the concentration that lowers cell viability or growth by half. For `Nc1ncnc2c1ncn2[C@H]1C=C[C@]2(CO)C[C@H]12` [Compound 4c, ((1′R, 4′S, 5′S)-4-(6-Amino-9H-purin-9-yl)bicyclo[3.1.0]hex-2-en-1-yl)methanol], the values for the pEC50 in data set [1] and in data set [3] were 4.95 and 4.78, respectively. Moreover, the half-maximal cytotoxic concentration (CC50) in data set [2] stood at 246 µM; in data set [4] (read-out: CC50(HOS), HOS cells, absence of virus, ATP level), 423 µM. Moreover, in data set [3], the “Selectivity index (cytotoxicity versus infectivity), HOS cells” value worked out at 25 fold. Besides, the Anti-HIV activity entry in data set [5] is “active”.

On to `Cc1cn([C@H]2C[C@H](O)[C@]3(CO)C[C@H]23)c(=O)[nH]c1=O` [Compound 3a, North-methanocarbathymidine], for which the Anti-HIV activity entry in data set [6] is “inactive”.

Consider `Nc1ccn([C@H]2C=C[C@]3(CO)C[C@H]23)c(=O)n1` [Compound 4d, 4-Amino-1-((1′S, 2′S, 5′R)-5-(hydroxymethyl)bicyclo[3.1.0]hex-3-en-2-yl)pyrimidin-2(1H)-one], for which, in data set [4], the “Cytotoxicity (qualitative)” value was “relatively non-toxic”. Moreover, the Anti-HIV activity entry in data set [5] was “inactive”.

On to `Nc1ncnc2c1ncn2[C@@]12C=C[C@@H](CO)[C@@H]1C2` [Compound 6c, ((1′S, 2′R, 5′S)-5-(6-Amino-9H-purin-9-yl)bicyclo[3.1.0]hex-3-en-2-yl)methanol], for which, in data set [5], the Anti-HIV activity entry was “inactive”.

On to `Cc1cn([C@H]2C=C[C@@H](CO)O2)c(=O)[nH]c1=O` [Compound D4T, stavudine], for which the “Phosphorylation by cellular thymidine kinase (TK), less efficient than for AZT” value in data set [7] is 500 fold.

On to `Cc1cn([C@H]2C[C@H](N=[N+]=[N-])[C@@H](CO)O2)c(=O)[nH]c1=O` [AZT], for which, in data set [7] (qualitative), the “Affinity for cellular thymidine kinase (TK)” value is reported as “equivalent to that of thymidine itself”.

On to `Nc1nc2c(ncn2[C@@]23C=C[C@@H](CO)[C@@H]2C3)c(=O)[nH]1` [Compound 6b, 2-Amino-9-((1′S, 4′R, 5′S)-4-(hydroxymethyl)bicyclo[3.1.0]hex-2-en-1-yl)-1H-purin-6(9H)-one], for which the Anti-HIV activity entry in data set [5] is “inactive”.

For the compound `Nc1ccn([C@@]23C=C[C@@H](CO)[C@@H]2C3)c(=O)n1` [Compound 6d, 4-Amino-1-((1′S, 4′R, 5′S)-4-(hydroxymethyl)bicyclo[3.1.0]hex-2-en-1-yl)pyrimidin-2(1H)-one], in data set [1], the “Selectivity index, HOS-313 cells” value worked out at 130 and the pEC50 was 5.52. Further, in data set [3], the “Selectivity index (cytotoxicity versus infectivity), HOS cells” value was found to be 15.8 and the pEC50 was 4.57. In addition, in data set [5], the Anti-HIV activity result is “+/− active”.

Take `Cc1cn([C@@]23C=C[C@@H](CO)[C@@H]2C3)c(=O)[nH]c1=O` [Compound 6a, 1-((1′S, 4′R, 5′S)-4-(Hydroxymethyl)bicyclo[3.1.0]hex-2-en-1-yl)-5-methylpyrimidine-2,4(1H,3H)-dione]: the Anti-HIV activity entry in data set [5] is “inactive”.
